Results reported in publication PMC3898838, “Design, Synthesis, and Biological Evaluation of an Allosteric Inhibitor of HSET that Targets Cancer Cells with Supernumerary Centrosomes” (Chemistry & Biology, 2013).

Experiments:
[1] = biological target: T1, full-length, N-terminal, 6His-tagged KSP (Homo sapiens, UniProt P52732); test: In vitro enzymatic ATPase assay (ADP-Glo), MT-stimulated activity; format: biochemical; conditions: concentrations up to 250 μM, mean ± SD
T1 construct: IC50 values for CW069 and 3 against full-length, N-terminal, 6His-tagged HSET and KSP; made in house
T1 sequence (P52732 1-1056): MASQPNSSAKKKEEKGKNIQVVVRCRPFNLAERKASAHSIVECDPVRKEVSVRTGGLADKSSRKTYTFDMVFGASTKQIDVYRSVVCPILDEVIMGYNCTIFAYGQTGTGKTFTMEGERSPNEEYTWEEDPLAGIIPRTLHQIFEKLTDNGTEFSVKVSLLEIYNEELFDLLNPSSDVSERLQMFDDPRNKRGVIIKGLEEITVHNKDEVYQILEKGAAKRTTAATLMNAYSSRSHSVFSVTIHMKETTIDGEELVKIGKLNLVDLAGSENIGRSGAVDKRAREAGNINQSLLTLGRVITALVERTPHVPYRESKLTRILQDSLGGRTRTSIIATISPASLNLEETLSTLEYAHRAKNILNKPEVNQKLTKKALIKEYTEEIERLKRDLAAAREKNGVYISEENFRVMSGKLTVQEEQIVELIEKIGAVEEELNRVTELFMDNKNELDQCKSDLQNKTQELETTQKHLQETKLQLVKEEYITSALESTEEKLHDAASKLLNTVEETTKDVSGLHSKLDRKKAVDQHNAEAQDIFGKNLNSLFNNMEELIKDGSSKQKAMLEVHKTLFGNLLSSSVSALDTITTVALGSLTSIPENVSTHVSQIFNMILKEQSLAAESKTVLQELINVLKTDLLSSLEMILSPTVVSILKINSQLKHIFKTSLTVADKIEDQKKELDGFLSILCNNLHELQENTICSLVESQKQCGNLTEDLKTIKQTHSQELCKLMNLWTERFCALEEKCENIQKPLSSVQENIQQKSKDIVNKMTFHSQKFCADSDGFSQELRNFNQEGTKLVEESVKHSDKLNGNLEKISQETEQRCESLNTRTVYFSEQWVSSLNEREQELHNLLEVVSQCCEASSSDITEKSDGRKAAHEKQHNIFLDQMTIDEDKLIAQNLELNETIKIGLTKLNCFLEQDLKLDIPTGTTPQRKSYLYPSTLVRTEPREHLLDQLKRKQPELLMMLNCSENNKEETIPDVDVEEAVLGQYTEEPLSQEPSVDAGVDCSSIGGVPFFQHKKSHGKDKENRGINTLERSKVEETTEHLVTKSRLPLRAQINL
Text: (§1) The similarity decreases to 56% in the loop 5 binding cleft alone (residues 422–432; Figure 1A). Given the high degree of similarity between the proteins, and the potential for selective binding in the loop 5 cleft, the chemogenomics principle that similar proteins bind similar ligands was applied to HSET and KSP, and an in silico model for HSET binding was developed based on nearly 500 existing inhibitors of KSP in the ChEMBL database (see Experimental Procedures for details; [Klabunde, 2007]). Using the model parameters, we selected 200 compounds (in silico) from 20 million possibilities and further triaged them into 50 ligands that scored highest in the bioactivity model. We acquired and tested these ligands for in vitro activity using an ADP-Glo enzymatic assay (see Experimental Procedures for details; Figure 1B).
(§2) The protocol was optimized for use with full-length, N-terminal, 6His-tagged HSET and KSP, and measured the MT-stimulated activity of the proteins. Inhibition of the […] of HSET/KSP was observed spectrophotometrically by coupling the hydrolysis of ATP to oxidation of NADH via pyruvate kinase/lactate dehydrogenase reactions. The assay was initiated by […] an assay mixture containing the following components (final concentration): 6 nM protein, 0.07 mg/ml MTs (University Biologicals), […], 2 mM ATP, 2.7 mM MgCI, 1 mM phospho(enol)-pyruvate, 0.2 mM NADH, 50 μg/ml lactate dehydrogenase, 100 μg/ml pyruvate kinase, and various concentrations of inhibitor all in 50 mM Na PIPES (pH 6.8) at 37°C. The ADP-Glo detection assay (Promega) was performed as described in the manufacturer’s instructions. All compound additions were performed using a multidrop BioMek Nxp (Beckman Coulter). Plates were read using a Pherastar microplate reader (BMG Labtech).

[2] = biological target: T2, full-length, N-terminal, 6His-tagged human HSET (Homo sapiens, UniProt Q9BW19); test: as above; format: biochemical; conditions: for reduction of HSET ATPase function: first-pass enzymatic assay, at 100 μM, n = 3
T2 construct: The protocol was optimized for use with full-length, N-terminal, 6His-tagged HSET and KSP; made in house; host or cells: Sf9 insect cells (baculovirus, pFastBac1)
T2 sequence (Q9BW19 1-673): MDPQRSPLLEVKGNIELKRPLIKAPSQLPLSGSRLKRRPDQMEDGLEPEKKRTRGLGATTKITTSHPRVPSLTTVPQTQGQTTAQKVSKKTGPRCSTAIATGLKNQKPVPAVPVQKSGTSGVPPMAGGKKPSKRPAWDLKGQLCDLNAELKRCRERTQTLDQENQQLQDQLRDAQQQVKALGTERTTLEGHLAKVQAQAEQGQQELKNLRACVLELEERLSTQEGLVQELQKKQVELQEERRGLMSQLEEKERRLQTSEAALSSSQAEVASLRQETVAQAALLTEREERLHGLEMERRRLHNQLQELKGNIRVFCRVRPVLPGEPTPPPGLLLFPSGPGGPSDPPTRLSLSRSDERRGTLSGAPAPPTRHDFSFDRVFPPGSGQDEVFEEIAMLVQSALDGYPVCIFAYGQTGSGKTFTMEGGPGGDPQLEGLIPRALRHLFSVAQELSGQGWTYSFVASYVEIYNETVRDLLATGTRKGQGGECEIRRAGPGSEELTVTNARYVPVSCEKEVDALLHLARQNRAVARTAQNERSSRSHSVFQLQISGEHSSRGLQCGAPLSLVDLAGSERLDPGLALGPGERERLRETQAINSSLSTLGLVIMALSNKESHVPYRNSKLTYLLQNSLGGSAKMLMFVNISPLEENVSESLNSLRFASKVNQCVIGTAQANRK
Text: as §1, §2

HeLa cells [3] = test: Time-lapse video microscopy, mitotic duration, arrest and exit; format: cell-based, human; conditions: 200 μM CW069, 100 μM monastrol
Protocol: HSET is known to antagonize the activity of the related kinesin, KSP, during spindle formation ([Mountain et al., 1999]). Therefore, we used time-lapse video microscopy to investigate whether CW069-treated cells transit mitosis with normal kinetics, and whether the characteristic mitotic arrest induced by inhibition of KSP ([Mayer et al., 1999]) could be suppressed by cotreatment with CW069. To this end, HeLa cells were treated with either DMSO control (0.2%), 200 μM CW069, 100 μM monastrol, or CW069+monastrol for 60 min before being imaged every 5 min for a further 360 min. Mitotic duration (MD) was defined as the period of time between when the cells began to round up and the onset of anaphase. No statistical difference was recorded between control cells and cells treated with 200 μM CW069 (MD 55 ± 7 and 53 ± 6 min, respectively, Figures 6A, 6B, and S7). […] This effect was reversed to a large extent by cotreatment of CW069 with monastrol. […] This is consistent with observations previously reported for KSP-depleted cells ([Mountain et al., 1999]). […] Cells were synchronized in G2-M by incubation at 37°C and 5% CO2 for 24 hr with 9 μM of the CDK1 inhibitor RO-3306 (Merck). Cells were released by removal of the RO-3306 and four washings of 10 min each, at 37°C, with prewarmed culture media + 10% FBS. N1E-115 cells were transfected with siRNA (Supplemental Experimental Procedures) and imaged from 6 hr after transfection. Some RO-3306-synchronized cells were released with 200 μM CW069, 100 μM monastrol, or 0.2% DMSO, and imaging started immediately or 1 hr after treatment. Imaging was carried out for 24 hr, or for 4 hr in the case of the CW069/monastrol cotreatment. Imaging was conducted every 5 min in a humidified chamber with 37°C and 5% CO2, using a Nikon Eclipse TE2000-E microscope, and analyzed with NIS-Elements software (Nikon, Tokyo, Japan). The morphology of cells in mitosis and the mitotic fate (bipolar division, multipolar division, or cell death) were analyzed.

HeLa cells [4] = test: Immunofluorescence after time-lapse imaging, monopolar/bipolar spindles; format: cell-based, human; conditions: 200 μM CW069, 100 μM monastrol, 40 mitotic cells
Text: Immediately after time-lapse imaging, cells were fixed and antibodies against α-tubulin, CDK5RAP2, and DAPI were employed to visualize MTs, centrosomes, and DNA, respectively. […] Control HeLa cells formed mainly bipolar spindles (92%), with two centrosomes positioned at the spindle poles on either side of the metaphase plate (Figure 6C; Table 1). Similar numbers of bipolar spindles were formed in CW069-treated cells (95%; Figure 6C; Table 1). Monastrol-treated cells almost exclusively formed monopolar spindles (97%) with one pole surrounded by DNA ([Luo et al., 2004]; Figure 6C; Table 1). Normal bipolar spindle formation was indeed restored for many cells (45%) when the HSET inhibitor CW069 was administered along with the KSP inhibitor monastrol (Figure 6C; Table 1).
Cells were plated at a seeding density of 1.2 × 10^4 cells per well in Ibidi eight-well chamber slides, incubated for 24 hr, and then treated with compound for 3 hr. Prewarmed 4% paraformaldehyde in PBS was then added to each well to fix the cells before washing with PBS. Permeabilization and blocking was performed by incubating the slides with 1% BSA, 0.3% Triton X-100, 5% goat serum in PBS (PBS/B/0.3%T+5%GS) for 1 hr while shaking them at room temperature (RT). The slides were incubated with primary antibody solutions (mouse monoclonal anti-α-Tubulin [catalog number T9026; Sigma-Aldrich] and rabbit anti-CDK5RAP2 [catalog number A300-554A; Bethyl Laboratories]) at 4°C for 16 hr. The slides were washed four times with PBS/B/0.3%T+5%GS and then incubated with secondary antibody solutions (anti-rabbit IgG Alexa Fluor 488 [catalog number A21206] and anti-mouse IgG Alexa Fluor 647 [catalog number A20990]; Invitrogen) and DAPI (catalog number D3571; Invitrogen) in deionized water (300 nM) in the dark at RT for 1 hr. After four washes with PBS/B/0.3%T+5%GS, the solution was replaced with PBS and the slides were stored at 4°C until imaging was performed. Images were gathered with the use of an ICys Research Imaging Cytometer (CompuCyte) or a tandem confocal microscope (Leica).

[5] = >200 cells that entered mitosis >60 min after treatment

O=C(O)c1cc(Cl)c(Cl)cc1C(=O)N(Cc1ccccc1)Cc1ccccc1 [compound 3]
IC50 [1]: 29 ± 2 µM
IC50 ([2]; concentrations up to 250 μM, mean ± SD): 30 ± 4 µM
selectivity for HSET over KSP ([2]; from IC50 values, HSET vs KSP): does not possess selectivity for HSET

CCOC(=O)C1=C(C)NC(=S)NC1c1cccc(O)c1 (stereo not shown) [monastrol, reference compound]
Mitotic Arrest (%) (HeLa cells [3]; [5]): 93%
Mitotic Exit (%) (HeLa cells [3]; [5]): 7%
Mitotic duration (MD) (HeLa cells [3]; rounding up to anaphase onset, cells transiting mitosis): 179 ± 68 min
Bipolar Spindle (%) (HeLa cells [4]): 3%
Monopolar Spindle (%) (HeLa cells [4]): 97%

O=C(O)c1cc(I)ccc1NC1C(=O)OC(c2ccccc2)C1c1ccccc1 (stereo not shown) [compound 2]
reduction of HSET ATPase function [2]: > 60%

O=C(c1ccc(N2CCCc3ccccc32)s1)n1ccnc1 [compound 1]
reduction of HSET ATPase function [2]: > 60%
